Measurements as given in ChEMBL document CHEMBL1135261, “Antitumor agents. Part 3: synthesis and cytotoxicity of new trans-stilbene benzenesulfonamide derivatives” (2002).

How the values were obtained:
Conditions in all cases: Homo sapiens
ACHN = assay: Tested for the cytotoxicity against the Renal cancer cell line ACHN, growth inhibition by 50% is reported; type: functional
A549 = assay: Tested for the cytotoxicity against the Non-small cell lung cancer cell line A-549, growth inhibition by 50% is reported; type: functional
CAKI-1 = assay: Tested for the cytotoxicity against the Renal cancer cell line CAKI-1, growth inhibition by 50% is reported; type: functional
BT-549 = assay: Tested for the cytotoxicity against the Breast cancer cell line BT-549, growth inhibition by 50% is reported; type: functional
CCRF-CEM = assay: Tested for the cytotoxicity against the Leukemia cell line CCRF-CEM, growth inhibition by 50% is reported; type: functional
HCT-15 = assay: Tested for the cytotoxicity against the colon cancer cell line HCT15, growth inhibition by 50% is reported; type: functional
HOP-92 = assay: Tested for the cytotoxicity against the Non-small cell lung cancer cell line HOP-92, growth inhibition by 50% is reported; type: functional
HL-60 = assay: Tested for the cytotoxicity against the Leukemia cell line HL60, growth inhibition by 50% is reported; type: functional
HT-29 = assay: Tested for the cytotoxicity against the colon cancer cell line HT29, growth inhibition by 50% is reported; type: functional
Hs-578T = assay: Tested for the cytotoxicity against the Breast cancer cell line HS-578T, growth inhibition by 50% is reported; type: functional
KM12 = assay: Tested for the cytotoxicity against the colon cancer cell line KM-12, growth inhibition by 50% is reported; type: functional
IGROV-1 = assay: Tested for the cytotoxicity against the Ovarian cancer cell line IGROV1, growth inhibition by 50% is reported; type: functional
K562 = assay: Tested for the cytotoxicity against the Leukemia cell line K-562, growth inhibition by 50% is reported; type: functional
LOX IMVI = assay: Tested for the cytotoxicity against the Melanoma cell line LOXIMVI, growth inhibition by 50% is reported; type: functional
MOLT-4 = assay: Tested for the cytotoxicity against the Leukemia cell line MOLT-4, growth inhibition by 50% is reported; type: functional
MDA-MB-435 = assay: Tested for the cytotoxicity against the Breast cancer cell line MDAMB435, growth inhibition by 50% is reported; type: functional
NCI-H226 = assay: Tested for the cytotoxicity against the Non-small cell lung cancer cell line NCI-H226, growth inhibition by 50% is reported; type: functional
NCI-H23 = assay: Tested for the cytotoxicity against the Non-small cell lung cancer cell line NCI-H23, growth inhibition by 50% is reported
OVCAR-8 = assay: Tested for the cytotoxicity against the Ovarian cancer cell line OVCAR-8, growth inhibition by 50% is reported; type: functional
OVCAR-4 = assay: Tested for the cytotoxicity against the Ovarian cancer cell line OVCAR-4, growth inhibition by 50% is reported; type: functional
RPMI-8226 = assay: Tested for the cytotoxicity against the Leukemia cell line RPMI8226, growth inhibition by 50% is reported; type: functional
SF-268 = assay: Tested for the cytotoxicity against the CNS cancer cell line SF-268, growth inhibition by 50% is reported; type: functional
SF-539 = assay: Tested for the cytotoxicity against the CNS cancer cell line SF-539, growth inhibition by 50% is reported; type: functional
U-251 = assay: Tested for the cytotoxicity against the CNS cancer cell line U251,growth inhibition by 50% is reported; type: functional
UACC-62 = assay: Tested for the cytotoxicity against the Melanoma cell line UACC-62, growth inhibition by 50% is reported; type: functional
SR = assay: Tested for the cytotoxicity against the Leukemia cell line SR, growth inhibition by 50% is reported; type: functional
NCI-H522 = assay: Tested for the cytotoxicity against the Non-small cell lung cancer cell line NCI-H522 growth inhibition by 50% is reported; type: functional

SMILES | GI50 (ACHN) | GI50 (A549) | GI50 (CAKI-1) | GI50 (CCRF-CEM) | GI50 (HCT-15) | GI50 (HOP-92) | GI50 (HL-60) | GI50 (HT-29) | GI50 (Hs-578T) | GI50 (KM12) | GI50 (IGROV-1) | GI50 (K562) | GI50 (LOX IMVI) | GI50 (MOLT-4) | GI50 (MDA-MB-435) | GI50 (NCI-H226) | GI50 (NCI-H23) | GI50 (OVCAR-8) | GI50 (OVCAR-4) | GI50 (RPMI-8226) | further results
COc1cccc(/C=C/c2ccc(S(N)(=O)=O)cc2)c1 | 7.12 µM | 11 µM | 14.7 µM | 13.6 µM | 3.6 µM | 3.29 µM | 10.4 µM | 0.554 µM | 25.5 µM | 12.2 µM | 2.5 µM | 20.6 µM | 30.7 µM | 26.8 µM | 17.4 µM | 2.91 µM | 21 µM | 31.6 µM | 25 µM | 3.81 µM | GI50 (BT-549): 6.38 µM; GI50 (SF-268): 17.1 µM; GI50 (SF-539): 16.8 µM; GI50 (U-251): 5.54 µM; GI50 (UACC-62): 14 µM; GI50 (SR): 5.21 µM
NS(=O)(=O)c1ccc(/C=C/c2ccc(O)c(O)c2)cc1 | 20.4 µM | 22.3 µM | 29.1 µM | 4.79 µM | 13.9 µM | 15.8 µM | 16.3 µM | 35.4 µM | 25.6 µM | 18.2 µM | 4.49 µM | 35.3 µM | 29.9 µM | 12.8 µM | 16.8 µM | 14 µM | 25.9 µM | 16.7 µM | 11.6 µM | 9.16 µM | GI50 (BT-549): 4.13 µM; GI50 (NCI-H522): 2.25 µM; GI50 (SF-268): 18.2 µM; GI50 (SF-539): 14.2 µM; GI50 (U-251): 16.3 µM; GI50 (UACC-62): 23.3 µM; GI50 (SR): 12.7 µM
NS(=O)(=O)c1ccc(/C=C/c2ccc(F)cc2)cc1 | 2.97 µM | 8.93 µM | 36.3 µM | 62 µM | 9.98 µM | 33.2 µM | 37.3 µM | 29.4 µM | 23.7 µM | 16.3 µM | 20.9 µM | 14.9 µM | 26.7 µM | 12.9 µM | 27 µM | 7.97 µM | 45.1 µM | 15.2 µM | 34.4 µM | 42.3 µM | GI50 (BT-549): 0.205 µM; GI50 (NCI-H522): 4.81 µM; GI50 (SF-268): 20.5 µM; GI50 (SF-539): 29.1 µM; GI50 (U-251): 7.93 µM; GI50 (SR): 10.5 µM
CN(C)c1ccc(/C=C/c2ccc(S(N)(=O)=O)cc2)cc1 | 13.6 µM | 10.1 µM | 50.3 µM | 46 µM | 17.1 µM | 16.6 µM | > 100 µM | 30.8 µM | 3.03 µM | 8.28 µM | 13.4 µM | > 100 µM | 18.7 µM | > 100 µM | 7.63 µM | 12.1 µM | 14.2 µM | 4.95 µM | 3.34 µM | 11.6 µM | GI50 (BT-549): 2.14 µM; GI50 (NCI-H522): 6.88 µM; GI50 (SF-268): 7.16 µM; GI50 (SF-539): 11.7 µM; GI50 (U-251): 11.2 µM; GI50 (SR): 8.58 µM
NS(=O)(=O)c1ccc(/C=C/c2cccc(O)c2)cc1 | 25.8 µM | 19.8 µM | 50.2 µM | 16.1 µM | 22.8 µM | 17.4 µM | 41.4 µM | 43.3 µM | 61 µM | 35.4 µM | 30.2 µM | 43.4 µM | 43 µM | 20 µM | 25.8 µM | 25.8 µM | 46.1 µM | 25.2 µM | 27.8 µM | 18.9 µM | GI50 (NCI-H522): 12.2 µM; GI50 (SF-268): 65.6 µM; GI50 (SF-539): 36.7 µM; GI50 (U-251): 21.1 µM; GI50 (UACC-62): 18.6 µM; GI50 (SR): 17.8 µM
NS(=O)(=O)c1ccc(/C=C/c2ccc(O)cc2)cc1 | 2.28 µM | 13.9 µM | 5.59 µM | 4.5 µM | 24.6 µM | 31.5 µM | 4.35 µM | 17.8 µM | 28.9 µM | 11.1 µM | 20.3 µM | 24.9 µM | 19.1 µM | 22.6 µM | 20.3 µM | 11.1 µM | 16.9 µM | 4.81 µM | 36.9 µM | 7.09 µM | GI50 (NCI-H522): 13.8 µM; GI50 (SF-268): 31.5 µM; GI50 (SF-539): 7.4 µM; GI50 (U-251): 15 µM; GI50 (UACC-62): 3.4 µM; GI50 (SR): 4.68 µM
COc1cc(/C=C/c2ccc(S(N)(=O)=O)cc2)cc(OC)c1 | 23.5 µM | 20.7 µM | 19 µM | 19.9 µM | 17.4 µM | 15 µM | 18.6 µM | 16.2 µM | 20.1 µM | 20.8 µM | 23.1 µM | 28.7 µM | 18.2 µM | 18.6 µM | 18.7 µM | 12.3 µM | 22.5 µM | 37.9 µM | 21.2 µM | 14.3 µM | GI50 (BT-549): 10.7 µM; GI50 (SF-268): 28.3 µM; GI50 (SF-539): 18.8 µM; GI50 (U-251): 17.1 µM; GI50 (UACC-62): 15.4 µM; GI50 (SR): 19.7 µM
